# Measurements as given in patent US10597388B2, “Pyridazinone herbicides” (FMC CORPORATION, priority 2014, dated 2020).
# What was measured:
# Assay type in all cases: in vivo
# [1] = tested on: blackgrass (Alopecurus myosuroides); assay: Test C greenhouse herbicide test, pre- and postemergence
# How it was run: (§1)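 Visual ratings on a 0 to 100 scale (0 = no effect, 100 = complete control) versus untreated controls, scored 13–15 d after treatment. Soil-applied preemergence to seeded loam/sand; foliar postemergence to 1- to 4-leaf plants (2–18 cm) in peat-vermiculite mix; compounds formulated in solvent plus surfactant.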
# [2] = tested on: pigweed (Amaranthus retroflexus); assay: as above
# How it was run: as §1
# [3] = tested on: corn (Zea mays); assay: as above
# How it was run: as §1
# [4] = tested on: nutsedge, yellow (yellow nutsedge, Cyperus esculentus); assay: as above
# How it was run: as §1
# [5] = tested on: velvetleaf (Abutilon theophrasti); assay: as above
# How it was run: as §1
# [6] = tested on: soybean (Glycine max); assay: as above
# How it was run: as §1
# [7] = tested on: waterhemp (common waterhemp, Amaranthus rudis); assay: as above
# How it was run: as §1
# [8] = tested on: foxtail, giant (giant foxtail, Setaria faberii); assay: Test A greenhouse herbicide test, pre- and postemergence
# How it was run: (§2)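 Seeds in loam–sand blend received a preemergence directed soil spray; plants at 2–10 cm, one- to two-leaf stage, received postemergence sprays. Compounds in a non-phytotoxic solvent with surfactant. After about 10 d in a greenhouse, injury rated visually versus untreated controls on a 0–100 scale (100 = complete control).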
# [9] = tested on: corn (Zea mays); assay: as above; conditions: Postemergence; for Plant response rating, Corn: 125 g ai/ha; for Corn plant response rating: 500 g ai/ha, 0 to 100 scale, 0 is no effect, 100 is complete control
# How it was run: as §2
# [10] = tested on: ryegrass, Italian (Italian ryegrass, Lolium multiflorum); assay: as above
# How it was run: as §2
# [11] = tested on: wheat (Triticum aestivum); assay: as above; conditions: Postemergence; for Plant response rating, Wheat: 125 g ai/ha; for Wheat plant response rating: 500 g ai/ha, 0 to 100 scale, 0 is no effect, 100 is complete control
# How it was run: as §2
# [12] = Postemergence, 31 g ai/ha, 0 to 100 scale (0 no effect, 100 complete control)
# [13] = Postemergence, 125 g ai/ha, scale 0 to 100, 0 is no effect, 100 is complete control
# [14] = Postemergence, 250 g ai/ha, scale 0 to 100, 0 no effect, 100 complete control, 13 to 15 d
# [15] = Preemergence, 31 g ai/ha, scale 0 to 100, 0 is no effect, 100 is complete control
# [16] = Preemergence, 62 g ai/ha, scale 0 to 100, 0 is no effect, 100 is complete control
# [17] = Preemergence, 125 g ai/ha, scale 0 to 100, 0 is no effect, 100 is complete control
# [18] = Preemergence, 250 g ai/ha, scale 0 to 100, 0 no effect, 100 complete control
# [19] = postemergence, 62 g ai/ha, scale 0 to 100, 0 no effect, 100 complete control
# [20] = Postemergence, 125 g ai/ha, 0 to 100 scale where 0 is no effect and 100 is complete control
# [21] = Postemergence, 500 g ai/ha, 0 to 100 scale, 0 is no effect, 100 is complete control
# [22] = Preemergence, 125 g ai/ha, 0 to 100 scale where 0 is no effect and 100 is complete control
# [23] = Preemergence, 500 g ai/ha, 0 to 100 scale, 0 no effect, 100 complete control
# [24] = 0 to 100 scale where 0 is no effect and 100 is complete control
# [25] = Postemergence, 125 g ai/ha, visual rating after approx. 10 d, 0 to 100 scale (0 no effect, 100 complete control)
# [26] = visual rating after approx. 10 d, 0 to 100 scale (0 no effect, 100 complete control)
compound,measurement,setting,value
Cc1nn(C)c(=O)c(-c2ccc(F)c3ccccc23)c1O [Compound 41],Blackgrass plant response rating,[1]; [12],30
same,"Plant response rating, Blackgrass",[1]; [13],50
same,"Plant response rating, Blackgrass",[1]; [14],60
same,"Plant response rating, Blackgrass",[1]; [15],70
same,"Plant response rating, Blackgrass",[1]; [16],80
same,"Plant response rating, Blackgrass",[1]; [17],85
same,Blackgrass plant response rating,[1]; [18],90
same,Blackgrass plant response rating,[1]; [19],35
same,Pigweed plant response rating,[2]; [12],65
same,"Plant response rating, Pigweed",[2]; [13],75
same,"Plant response rating, Pigweed",[2]; [14],95
same,"Plant response rating, Pigweed",[2]; [15],75
same,"Plant response rating, Pigweed",[2]; [16],100
same,"Plant response rating, Pigweed",[2]; [17],100
same,Pigweed plant response rating,[2]; [18],100
same,Pigweed plant response rating,[2]; [19],75
same,Corn plant response rating,[3]; [12],5
same,"Plant response rating, Corn",[3]; [13],10
same,"Plant response rating, Corn",[3]; [14],20
same,"Plant response rating, Corn",[3]; [15],0
same,"Plant response rating, Corn",[3]; [16],0
same,"Plant response rating, Corn",[3]; [17],5
same,Corn plant response rating,[3]; [18],40
same,Corn plant response rating,[3]; [19],5
same,"Nutsedge, Yellow plant response rating",[4]; [12],65
same,"Plant response rating, Nutsedge, Yellow",[4]; [13],65
same,"Plant response rating, Nutsedge, Yellow",[4]; [14],80
same,"Plant response rating, Nutsedge, Yellow",[4]; [15],60
same,"Plant response rating, Nutsedge, Yellow",[4]; [16],75
same,"Plant response rating, Nutsedge, Yellow",[4]; [17],75
same,"Nutsedge, Yellow plant response rating",[4]; [18],80
same,"Nutsedge, Yellow plant response rating",[4]; [19],65
same,Velvetleaf plant response rating,[5]; [12],30
same,"Plant response rating, Velvetleaf",[5]; [13],85
same,"Plant response rating, Velvetleaf",[5]; [14],90
same,"Plant response rating, Velvetleaf",[5]; [15],85
same,"Plant response rating, Velvetleaf",[5]; [16],90
same,"Plant response rating, Velvetleaf",[5]; [17],95
same,Velvetleaf plant response rating,[5]; [18],98
same,Velvetleaf plant response rating,[5]; [19],65
same,Soybean plant response rating,[6]; [12],15
same,"Plant response rating, Soybean",[6]; [13],20
same,"Plant response rating, Soybean",[6]; [14],15
same,"Plant response rating, Soybean",[6]; [15],0
same,"Plant response rating, Soybean",[6]; [16],20
same,"Plant response rating, Soybean",[6]; [17],50
same,Soybean plant response rating,[6]; [18],55
same,Soybean plant response rating,[6]; [19],15
same,Waterhemp plant response rating,[7]; [12],75
same,"Plant response rating, Waterhemp",[7]; [13],90
same,"Plant response rating, Waterhemp",[7]; [14],85
same,"Plant response rating, Waterhemp",[7]; [15],85
same,"Plant response rating, Waterhemp",[7]; [16],95
same,"Plant response rating, Waterhemp",[7]; [17],100
same,Waterhemp plant response rating,[7]; [18],100
same,Waterhemp plant response rating,[7]; [19],75
same,"Plant response rating, Foxtail, Giant",[8]; [20],70
same,"Foxtail, Giant plant response rating",[8]; [21],100
same,"Foxtail, Giant plant response rating",[8]; [22],70
same,"Plant response rating, Foxtail, Giant",[8]; [23],90
same,"Plant response rating, Corn",[9]; [24],20
same,Corn plant response rating,[9],70
same,"Plant response rating, Ryegrass, Italian",[10]; [20],100
same,"Ryegrass, Italian plant response rating",[10]; [21],100
same,"Ryegrass, Italian plant response rating",[10]; [22],100
same,"Plant response rating, Ryegrass, Italian",[10]; [23],100
same,"Plant response rating, Wheat",[11]; [24],0
same,Wheat plant response rating,[11],80
Cc1cc(C)c2ccccc2c1-c1c(O)c(C)nn(C)c1=O [Compound 21],Blackgrass plant response rating,[1]; [12],80
same,"Plant response rating, Blackgrass",[1]; [13],90
same,"Plant response rating, Blackgrass",[1]; [14],95
same,"Plant response rating, Blackgrass",[1]; [15],90
same,"Plant response rating, Blackgrass",[1]; [16],90
same,"Plant response rating, Blackgrass",[1]; [17],90
same,Blackgrass plant response rating,[1]; [18],90
same,Blackgrass plant response rating,[1]; [19],90
same,Pigweed plant response rating,[2]; [12],70
same,"Plant response rating, Pigweed",[2]; [13],95
same,"Plant response rating, Pigweed",[2]; [14],98
same,"Plant response rating, Pigweed",[2]; [15],100
same,"Plant response rating, Pigweed",[2]; [16],100
same,"Plant response rating, Pigweed",[2]; [17],100
same,Pigweed plant response rating,[2]; [18],100
same,Pigweed plant response rating,[2]; [19],95
same,Corn plant response rating,[3]; [12],5
same,"Plant response rating, Corn",[3]; [13],20
same,"Plant response rating, Corn",[3]; [14],20
same,"Plant response rating, Corn",[3]; [15],0
same,"Plant response rating, Corn",[3]; [16],15
same,"Plant response rating, Corn",[3]; [17],40
same,Corn plant response rating,[3]; [18],65
same,Corn plant response rating,[3]; [19],65
same,"Nutsedge, Yellow plant response rating",[4]; [12],85
same,"Plant response rating, Nutsedge, Yellow",[4]; [13],90
same,"Plant response rating, Nutsedge, Yellow",[4]; [14],90
same,"Plant response rating, Nutsedge, Yellow",[4]; [15],75
same,"Plant response rating, Nutsedge, Yellow",[4]; [16],85
same,"Plant response rating, Nutsedge, Yellow",[4]; [17],85
same,"Nutsedge, Yellow plant response rating",[4]; [18],85
same,"Nutsedge, Yellow plant response rating",[4]; [19],90
same,Velvetleaf plant response rating,[5]; [12],75
same,"Plant response rating, Velvetleaf",[5]; [13],85
same,"Plant response rating, Velvetleaf",[5]; [14],90
same,"Plant response rating, Velvetleaf",[5]; [16],90
same,"Plant response rating, Velvetleaf",[5]; [17],98
same,Velvetleaf plant response rating,[5]; [18],98
same,Velvetleaf plant response rating,[5]; [19],85
same,Soybean plant response rating,[6]; [12],0
same,"Plant response rating, Soybean",[6]; [13],10
same,"Plant response rating, Soybean",[6]; [14],20
same,"Plant response rating, Soybean",[6]; [16],0
same,"Plant response rating, Soybean",[6]; [17],0
same,Soybean plant response rating,[6]; [18],20
same,Soybean plant response rating,[6]; [19],0
same,Waterhemp plant response rating,[7]; [12],40
same,"Plant response rating, Waterhemp",[7]; [13],85
same,"Plant response rating, Waterhemp",[7]; [14],80
same,"Plant response rating, Waterhemp",[7]; [16],95
same,"Plant response rating, Waterhemp",[7]; [17],100
same,Waterhemp plant response rating,[7]; [18],100
same,Waterhemp plant response rating,[7]; [19],75
same,"Plant response rating, Foxtail, Giant",[8]; [25],100
same,"Foxtail, Giant plant response rating",[8]; [21],100
same,"Foxtail, Giant plant response rating",[8]; [22],90
same,"Plant response rating, Foxtail, Giant",[8]; [23],100
same,"Plant response rating, Corn",[9]; [26],50
same,Corn plant response rating,[9],60
same,"Plant response rating, Ryegrass, Italian",[10]; [25],100
same,"Ryegrass, Italian plant response rating",[10]; [21],100
same,"Ryegrass, Italian plant response rating",[10]; [22],100
same,"Plant response rating, Ryegrass, Italian",[10]; [23],100
same,"Plant response rating, Wheat",[11]; [26],10
same,Wheat plant response rating,[11],60
